Experimental data: the NIST ThermoML archive (doi:10.1021/je700287u)

Test: xn = mol fraction of the nth substance listed
Details: Liquid

CN(CCO)CCO [N-methyldiethanolamine] + O
Details | mass density [kg/m3]
323.09 K, 3015 kPa, x1 = 0.1302 | 1027.4
323.09 K, 3997 kPa, x1 = 0.0369 | 1002.4
323.09 K, 4003 kPa, x1 = 0.1302 | 1027.8
323.09 K, 4998 kPa, x1 = 0.0369 | 1002.7
323.09 K, 4999 kPa, x1 = 0.1302 | 1028.1
323.09 K, 5998 kPa, x1 = 0.1302 | 1028.5
323.09 K, 6003 kPa, x1 = 0.0369 | 1003.1
323.09 K, 6993 kPa, x1 = 0.0369 | 1003.5
323.09 K, 6998 kPa, x1 = 0.1302 | 1028.9
323.09 K, 7994 kPa, x1 = 0.0369 | 1004
323.09 K, 7999 kPa, x1 = 0.1302 | 1029.3
323.09 K, 8996 kPa, x1 = 0.0369 | 1004.4
323.09 K, 8998 kPa, x1 = 0.1302 | 1029.7
323.09 K, 9995 kPa, x1 = 0.1302 | 1030.1
323.09 K, 9997 kPa, x1 = 0.0369 | 1004.8
323.09 K, 10986 kPa, x1 = 0.0369 | 1005.2
323.09 K, 10997 kPa, x1 = 0.1302 | 1030.4
323.09 K, 11988 kPa, x1 = 0.0369 | 1005.6
323.09 K, 11998 kPa, x1 = 0.1302 | 1030.8
323.09 K, 12997 kPa, x1 = 0.0369 | 1006
323.09 K, 13005 kPa, x1 = 0.1302 | 1031.2
323.09 K, 13999 kPa, x1 = 0.0369 | 1006.4
323.09 K, 14003 kPa, x1 = 0.1302 | 1031.6
323.09 K, 14989 kPa, x1 = 0.0369 | 1006.8
323.09 K, 14990 kPa, x1 = 0.1302 | 1032
323.09 K, 15996 kPa, x1 = 0.1302 | 1032.3
323.09 K, 16002 kPa, x1 = 0.0369 | 1007.1
323.09 K, 16988 kPa, x1 = 0.0369 | 1007.6
323.09 K, 16999 kPa, x1 = 0.1302 | 1032.7
323.09 K, 17990 kPa, x1 = 0.0369 | 1007.9
323.09 K, 17996 kPa, x1 = 0.1302 | 1033.1
323.09 K, 18988 kPa, x1 = 0.1302 | 1033.4
323.09 K, 18996 kPa, x1 = 0.0369 | 1008.3
323.09 K, 19995 kPa, x1 = 0.0369 | 1008.7
323.09 K, 20004 kPa, x1 = 0.1302 | 1033.8
323.1 K, 1009 kPa, x1 = 0.0893 | 1019.6
323.1 K, 2006 kPa, x1 = 0.0893 | 1020
323.1 K, 3012 kPa, x1 = 0.0893 | 1020.4
323.1 K, 4011 kPa, x1 = 0.0893 | 1020.8
323.1 K, 5002 kPa, x1 = 0.0893 | 1021.2
323.1 K, 5996 kPa, x1 = 0.0893 | 1021.6
323.1 K, 7006 kPa, x1 = 0.0893 | 1022
323.1 K, 8004 kPa, x1 = 0.0893 | 1022.3
323.1 K, 8991 kPa, x1 = 0.0893 | 1022.7
323.1 K, 9999 kPa, x1 = 0.0893 | 1023.1
323.1 K, 10993 kPa, x1 = 0.0893 | 1023.5
323.1 K, 11992 kPa, x1 = 0.0893 | 1023.8
323.1 K, 13001 kPa, x1 = 0.0893 | 1024.2
323.1 K, 13990 kPa, x1 = 0.0893 | 1024.6
323.1 K, 14980 kPa, x1 = 0.0893 | 1025
323.1 K, 16002 kPa, x1 = 0.0893 | 1025.3
323.1 K, 16990 kPa, x1 = 0.0893 | 1025.7
323.1 K, 17994 kPa, x1 = 0.0893 | 1026.1
323.1 K, 18999 kPa, x1 = 0.0893 | 1026.5
323.1 K, 20002 kPa, x1 = 0.0893 | 1026.8
333.03 K, 1009 kPa, x1 = 0.1302 | 1019.4
333.03 K, 1015 kPa, x1 = 0.0607 | 1006.4
333.03 K, 1998 kPa, x1 = 0.0607 | 1006.8
333.03 K, 2002 kPa, x1 = 0.1302 | 1019.8
333.03 K, 2997 kPa, x1 = 0.1302 | 1020.2
333.03 K, 3013 kPa, x1 = 0.0607 | 1007.2
333.03 K, 3993 kPa, x1 = 0.1302 | 1020.6
333.03 K, 4037 kPa, x1 = 0.0607 | 1007.6
333.03 K, 4997 kPa, x1 = 0.1302 | 1021
333.03 K, 5116 kPa, x1 = 0.0607 | 1008.1
333.03 K, 6002 kPa, x1 = 0.1302 | 1021.4
333.03 K, 6004 kPa, x1 = 0.0607 | 1008.4
333.03 K, 6992 kPa, x1 = 0.0607 | 1008.8
333.03 K, 6992 kPa, x1 = 0.1302 | 1021.8
333.03 K, 8003 kPa, x1 = 0.0607 | 1009.1
333.03 K, 8013 kPa, x1 = 0.1302 | 1022.2
333.03 K, 8975 kPa, x1 = 0.0607 | 1009.6
333.03 K, 9016 kPa, x1 = 0.1302 | 1022.6
333.03 K, 9983 kPa, x1 = 0.0607 | 1009.9
333.03 K, 9993 kPa, x1 = 0.1302 | 1023
333.03 K, 10989 kPa, x1 = 0.1302 | 1023.4
333.03 K, 11029 kPa, x1 = 0.0607 | 1010.4
333.03 K, 12007 kPa, x1 = 0.1302 | 1023.8
333.03 K, 12015 kPa, x1 = 0.0607 | 1010.7
333.03 K, 13003 kPa, x1 = 0.1302 | 1024.1
333.03 K, 13028 kPa, x1 = 0.0607 | 1011.1
333.03 K, 13995 kPa, x1 = 0.1302 | 1024.5
333.03 K, 14020 kPa, x1 = 0.0607 | 1011.5
333.03 K, 15011 kPa, x1 = 0.1302 | 1024.9
333.03 K, 15022 kPa, x1 = 0.0607 | 1011.9
333.03 K, 15996 kPa, x1 = 0.1302 | 1025.3
333.03 K, 16006 kPa, x1 = 0.0607 | 1012.3
333.03 K, 16996 kPa, x1 = 0.0607 | 1012.7
333.03 K, 17011 kPa, x1 = 0.1302 | 1025.7
333.03 K, 17985 kPa, x1 = 0.1302 | 1026.1
333.03 K, 18013 kPa, x1 = 0.0607 | 1013.1
333.03 K, 18991 kPa, x1 = 0.1302 | 1026.4
333.03 K, 19018 kPa, x1 = 0.0607 | 1013.4
333.03 K, 19965 kPa, x1 = 0.0607 | 1013.8
333.03 K, 19993 kPa, x1 = 0.1302 | 1026.8
333.04 K, 1012 kPa, x1 = 0.0369 | 995.9
333.04 K, 1999 kPa, x1 = 0.0369 | 996.3
333.04 K, 2995 kPa, x1 = 0.0369 | 996.7
333.04 K, 4008 kPa, x1 = 0.0369 | 997.2
333.04 K, 4992 kPa, x1 = 0.0369 | 997.6
333.04 K, 5983 kPa, x1 = 0.0369 | 998
333.04 K, 6994 kPa, x1 = 0.0369 | 998.4
333.04 K, 7997 kPa, x1 = 0.0369 | 998.8
333.04 K, 8994 kPa, x1 = 0.0369 | 999.2
333.04 K, 9994 kPa, x1 = 0.0369 | 999.6
